Molecules are shown by their SMILES.

Experiment [1] has as its system A375 (human melanoma) cells. The experiment in a line: Proliferation study, A375 cells (Coulter Counter). In kind it is cell-based. The settings on record: 10 μM, 24 h, cell count vs DMSO. On the procedure: 50,000 cells/well were plated and treated for 24 h with each compound. The first DMSO bar in each chart serves as control for (+)-solenopsin A, (−)-solenopsin A, and ceramide C2. The second DMSO bar is the control for S11-S15.
(§1) Different analogs of solenopsin were synthesized (FIG. 1) in order to explore their structure-activity relationships. The aliphatic side chains of S14 and S13 are 4 and 8 carbons longer compared to solenopsin, respectively. S11 has an 8-carbon longer side chain, as well as an extra methyl group in the 4-position of the piperidine ring. S15 has an 11-carbon side chain similar to solenopsin, but the first carbon in the side chain is hydroxylated. Also, S15 lacks the methyl group in the 2-position of the piperidine ring. All the analogs together with (−)- and (+)-solenosin A, and the isomeric mixture of the two cis-isomers of solenopsin (S12) were tested, at 10 μM, on two different human melanoma cell lines (A375 and A2058) and one murine angiosarcoma cell line (SVR) (FIG. 2). The A375 and A2058 melanoma cell lines express mutant Braf and the SVR murine angiosarcoma cell line expresses mutant Hras. One important difference between the two human melanoma cell lines is the A2058 is PTEN null, whereas A375 is not.
(§2) A375 (human melanoma), A2058 (human melanoma), or SVR (murine angiosarcoma) cells were plated at a concentration of 50,000 cells/well. The cells were treated with 10 μM of (−)-solenopsin A, (+)-solenopsin A, or analogs (S11-S15) for 24 hours, at which point cells were counted with a Coulter Counter.

For experiment [2], the system named is SVR (murine angiosarcoma) cells. The experiment in a line: Proliferation study, SVR cells (Coulter Counter). In kind it is cell-based. The settings on record: 10 μM, 24 h, cell count vs DMSO.
Text: as §1, §2

For a further experiment, the target named is T1, PH domain of Akt1 (Homo sapiens, UniProt P31749).
T1 construct: attaching the yellow fluorescent protein (citrine) to the C-terminus of PH domain of Akt1; expressed in transfected cells; host or cells: NIH3T3
T1 sequence (P31749 5-108 limits assumed): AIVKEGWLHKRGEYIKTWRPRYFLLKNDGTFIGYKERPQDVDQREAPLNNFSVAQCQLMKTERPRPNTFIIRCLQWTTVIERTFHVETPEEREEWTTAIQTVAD
The experiment in a line: PH(Akt)-citrine, Akt translocation in NIH3T3 cells. It counts as cell-based, murine. The following applies: 10 μM, 1 h. On the procedure: (§3) In order to determine whether solenopsin A and analogs have similar modes of action to ceramide, a series of fluorescent biosensors were employed for the PI3K/Akt pathway. […] No significant inhibition could be seen for any of the other solenopsin analogs (FIG. 4).
(§4) PARE was generated by sandwiching full-length PDK1 between a fluorescent protein pair (FRET pair), ECFP and citrine, and a motif generated from the Lyn-kinase gene was added to the 5′-end to target the construct to raft microdomains. AktAR was generated by a fluorescent protein pair, cerulean and cpVE172, sandwiching a forkhead-associated binding domain (FHA1) and an Akt substrate domain (FOXO). PH(Akt)-citrine was constructed by attaching the yellow fluorescent protein (citrine) to the C-terminus of PH domain of Akt1, therefore the translocation of Akt PH domain can be detected by increase of yellow fluorescence at plasma membrane.
(§5) NIH3T3 cells were plated and grown to 40% confluency. […] The data was analyzed with Metafluor 6.2 software (Universal Imaging, Downingtown, Pa.). Cell regions were selected and fluorescence images were background-corrected by deducting the background (regions with no cells) from the emission intensities of CFP or YFP. […] For analysis of PH (Akt) domain translocation (PH(Akt)-citrine), the ratio of intensities of citrine at cell membrane and cytosol were calculated after background correction. […]

In the next experiment the test system is A375 cells. The experiment in a line: Superoxide (ROS) by DHE fluorescence, A375 cells. The settings on record: 10 μM, 24 h. In kind it is cell-based, human. The procedure: Cells were treated for 24 h with 10 μM of (+)-solenopsin A ((+) Sol. A), (−)-solenopsin A ((−) Sol. A), and solenopsin analogs S11-S15. Cells were trypsined and incubated for 10 min in 10 μM dihydroethedium (DHE), followed by analysis with a FACScan flow cytometer. Data shown are an average of three experiments±s.d.
A375 or SVR cells were plated in 6 cm dishes. After cells had adhered to the plates, they were treated for 24 h with 10 μM DMSO solutions of (+)-solenopsin A, (−)-solenopsin A, or analogs (S11-S15) at which time the media was aspirated. Cells were washed with 2 mL PBS then treated with 0.05% trypsin/0.53 mM EDTA (Fisher) for 3 min at RT. Cells were collected and then pelleted at 600 g for 2 min. The supernatant was aspirated and the cells were suspended in 10 uM dihydroethidium (DHE) (Life Technologies) and incubated for 10 min in the dark at RT while shaking Following this incubation, cells were kept until counting on a Becton Dickinson FACScan flow cytometer. 10,000 cells were counted and analyzed by FlowJo 7.6.4. Mean values of DHE fluorescence intensity were compared.

Another experiment deals with Akt. The experiment in a line: FRET biosensor AktAR, Akt activity in NIH3T3 cells. It counts as cell-based, murine. The settings on record: 10 μM, 1 h. On the procedure: as §3, §4, §5
Another experiment deals with UM-SCC1A cells. The experiment in a line: Oxygen consumption rate (Seahorse) in UM-SCC1A cells. In kind it is cell-based, human. The following applies: 10 μM, 24 h. The procedure: UM-SCC1A cells were plated 15,000/well and treated for 24 h with 10 μM of (+)-solenopsin A ((+) Sol. A), (−)-solenopsin A ((−) Sol. A), and solenopsin analogs S11-S15. Oxygen consumption rate (OCR) was measured as pmoles O2/minute using a Seahorse Biosciences instrument. Data shown are an average of three experiments±s.d.
At least not in Braf mutated cell lines, such as A375 and A2058. One possibility is that solenopsin, like ceramide, may also localize to mitochondria, and cause mitochondrial induced cell death. Cellular oxygen consumption rate can be indicative of mitochondrial function. Therefore, to investigate if solenopsin A and analogs do alter mitochondrial function, UM-SCC1A (human head and neck SCC) cells were then treated with 10 μM compound or the equivalent amount of DMSO and incubated for 24 hours. A SeaHorse Bioscience instrument was used to measure the oxygen consumption rate (OCR). […] Mitophagy can be one reason for decreased OCR, but further assays are needed to confirm the cause for the observed differences.
UM-SCC1A cells were plated 15,000 per well in 200 μl DMEM supplemented with 10% FBS and 1% penicillin-streptomycin in each well of a 96-well Seahorse plate and incubated overnight at 37° C. with 5% CO2. Cells were then treated with 10 μM compound or the equivalent amount of DMSO and incubated for 24 hours. OCR was measured as pmoles O2/minute using the Seahorse Biociences instrument per manufacturer's instructions. Protein amounts in each well were then quantified using the Thermo Scientific Pierce Protein Assay, per manufacturer's instructions.

The target of the next experiment is T2, PDK1 (Homo sapiens, UniProt O15530).
T2 construct: PARE was generated by sandwiching full-length PDK1 between a fluorescent protein pair (FRET pair), ECFP and citrine; expressed in transfected cells; host or cells: NIH3T3
T2 sequence (O15530 1-556): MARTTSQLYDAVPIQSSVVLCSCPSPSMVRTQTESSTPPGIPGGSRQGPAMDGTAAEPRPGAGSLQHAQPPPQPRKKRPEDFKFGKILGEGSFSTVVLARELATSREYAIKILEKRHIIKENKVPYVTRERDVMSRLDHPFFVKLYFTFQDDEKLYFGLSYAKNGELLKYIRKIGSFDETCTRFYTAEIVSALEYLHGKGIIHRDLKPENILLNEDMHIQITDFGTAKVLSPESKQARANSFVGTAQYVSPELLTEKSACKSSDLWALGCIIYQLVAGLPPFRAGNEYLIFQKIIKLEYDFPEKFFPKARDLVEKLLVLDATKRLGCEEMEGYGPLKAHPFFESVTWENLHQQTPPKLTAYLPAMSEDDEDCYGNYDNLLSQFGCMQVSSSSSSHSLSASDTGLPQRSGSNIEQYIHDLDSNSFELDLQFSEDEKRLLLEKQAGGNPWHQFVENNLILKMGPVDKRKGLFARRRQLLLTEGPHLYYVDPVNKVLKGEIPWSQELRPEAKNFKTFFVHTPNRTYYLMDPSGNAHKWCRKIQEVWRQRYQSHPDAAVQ
The experiment in a line: FRET biosensor Lyn-PARE, PDK1 activation in membrane rafts of NIH3T3 cells. In kind it is cell-based, murine. The following applies: 10 μM, 1 h. On the procedure: as §3, §4, §5

For experiment [3], the system named is A2058 (human melanoma) cells. The experiment in a line: Proliferation study, A2058 cells (Coulter Counter). In kind it is cell-based. The settings on record: 10 μM, 24 h, cell count vs DMSO.
Text: as §1, §2

`CCCCCCCCCCCCCCCCCCCC1CCCC(C)N1` (centres unmarked) [Compound S13, 2-Methyl-6-nonadecylpiperidine]: the antiproliferative effect result in experiment [1], in experiment [2] and in experiment [3] was “lower antiproliferative effect than S12” each time. For the same compound, the “inhibition of Akt translocation (PH(Akt)-citrine)” value on PH domain of Akt1 is given as “some inhibition”. Moreover, the “effect on superoxide levels (DHE fluorescence)” value with A375 cells is on record as “no effect on superoxide levels”. The “inhibition of Akt activity (AktAR)” value with Akt was “some inhibition”. Moreover, the “oxygen consumption rate (OCR) compared to DMSO control” value in the experiment with UM-SCC1A cells was “slightly reduced OCR”. The “inhibition of PDK1 activation (Lyn-PARE)” value at PDK1 is reported as “some inhibition”.

These data come from US9592226B2, “Solenopsin and derivatives, therapeutic compositions; and methods related thereto” (priority 2013, dated 2017).
